What all share (format): biochemical
The target in assay [1] is T1, WT IDH2 (Homo sapiens, UniProt P48735).
T1 construct: made in house; host or cells: Sf21 insect cells (cell pellets prepared at Evotec)
T1 sequence (P48735 40-452): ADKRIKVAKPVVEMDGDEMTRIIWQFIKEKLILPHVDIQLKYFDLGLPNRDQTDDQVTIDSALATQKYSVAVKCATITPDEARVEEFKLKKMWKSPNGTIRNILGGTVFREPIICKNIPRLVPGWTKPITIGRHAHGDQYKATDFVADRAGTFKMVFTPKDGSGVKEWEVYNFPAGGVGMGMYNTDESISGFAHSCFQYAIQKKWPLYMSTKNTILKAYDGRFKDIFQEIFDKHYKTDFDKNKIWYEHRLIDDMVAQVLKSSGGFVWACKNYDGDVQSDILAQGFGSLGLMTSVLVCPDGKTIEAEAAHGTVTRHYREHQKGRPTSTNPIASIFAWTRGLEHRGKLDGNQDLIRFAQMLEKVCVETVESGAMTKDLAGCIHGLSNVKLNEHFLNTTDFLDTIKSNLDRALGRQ
In words: Absorbance assay, WT activity in the presence of equimolar DL-isocitrate (inhibition). As to conditions: […] isocitrate and […] test compound, 75 μM NADP+, 2.0 nM WT IDH2. As to the method: (§1) Compounds were dispensed using a CyBio SDW-CW CyBi-Well Simultaneous Pipettor and assay started using a ThermoFisher Multidrop Combi reagent dispenser.
(§2) Reactions were performed as technical quadruplicates.

The target in assay [2] is T2, WT IDH1 (Homo sapiens, UniProt O75874).
T2 construct: made in house; host or cells: Escherichia coli BL21(DE3) pLyS
The assay is described as above. The following applies: […] isocitrate and […] test compound, 75 μM NADP+, 2.0 nM WT IDH1. The procedure: as §1, §2

The target of a further assay is R132H IDH1 (Homo sapiens, UniProt O75874, R132H). Put plainly: Absorbance assay, variant activity in the presence of equimolar 2OG (inhibition screen). Also noted: made in house; host or cells: Escherichia coli BL21(DE3) pLyS. As to conditions: […] 2OG and […] test compound, 0.03 μM R132H IDH1, 50 μM NADPH. As to the method: as §1, §2
Another assay concerns the target T3, R140Q IDH2 (Homo sapiens, UniProt P48735, R140Q).
T3 construct: made in house; host or cells: Sf21 insect cells (cell pellets prepared at Evotec)
T3 sequence (P48735 40-452 R140Q): T1 sequence (P48735 40-452) with R101Q
Described as above. The following applies: 6.0 mM 2OG and 6.0 mM test compound, 0.03 μM R140Q IDH2, 50 μM NADPH. As to the method:
as §1, §2

In the next assay the target is T4, R172K IDH2 (Homo sapiens, UniProt P48735, R172K).
T4 construct: made in house; host or cells: Sf21 insect cells (cell pellets prepared at Evotec)
T4 sequence (P48735 40-452 R172K): T1 sequence (P48735 40-452) with R133K
Described as above. The following applies: 1.0 mM 2OG and 1.0 mM test compound, 0.03 μM R172K IDH2, 50 μM NADPH. As to the method: as §1, §2

Assay [3] concerns the target T1, WT IDH2. Put plainly: Absorbance assay, substrate activity in the absence of DL-isocitrate. As to conditions: no DL-isocitrate; […] test compound, 75 μM NADP+, 2.0 nM WT IDH2; compared to DL-isocitrate. The procedure: as §1, §2
Assay [4] concerns the target T2, WT IDH1. Described as above. As to conditions: no DL-isocitrate; […] test compound, 75 μM NADP+, 2.0 nM WT IDH1; compared to DL-isocitrate. As to the method:
as §1, §2

The source of these data is article PMC9939733 (The Journal of Biological Chemistry, 2023).

The structures appear in SMILES notation. Residue numbers refer to the chain shown, from its start. Bounds are passed on as bounds.

Chain of R132H IDH1 (O75874 whole entry R132H): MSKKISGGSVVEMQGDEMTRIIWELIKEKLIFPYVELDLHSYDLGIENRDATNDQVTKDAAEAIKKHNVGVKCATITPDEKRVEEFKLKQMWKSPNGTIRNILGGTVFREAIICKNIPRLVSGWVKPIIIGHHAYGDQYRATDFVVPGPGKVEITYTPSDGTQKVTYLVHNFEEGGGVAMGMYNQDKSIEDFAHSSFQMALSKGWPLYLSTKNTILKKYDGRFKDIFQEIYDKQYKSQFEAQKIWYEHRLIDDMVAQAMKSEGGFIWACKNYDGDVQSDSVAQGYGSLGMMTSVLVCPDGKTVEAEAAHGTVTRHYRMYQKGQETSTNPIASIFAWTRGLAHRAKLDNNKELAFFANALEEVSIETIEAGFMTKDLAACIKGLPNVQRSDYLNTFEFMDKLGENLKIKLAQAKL
T2 sequence (O75874 whole entry): as the sequence (O75874 whole entry R132H) above, with H132R counted along it

Turning to `O=C(O)C(=O)C1CC1C(=O)O` (mixture of isomers) [compound 21], the “activity [%] (%-substrate conversion after 20 min incubation)” value (“activity [%]” for short) was 95±2% at WT IDH2 [1]; 96±1% on WT IDH1 [2]; 132 ± 3% on R132H IDH1; 394 ± 40% on R140Q IDH2; 110 ± 4% at R172K IDH2; less than 10% at WT IDH2 [3]. Moreover, the “activity [%]” value at WT IDH1 [4] is less than 10%.

Take `CC1(C)C(C(=O)O)C1C(=O)C(=O)O` (mixture of isomers) [compound 22]: the “activity [%]” value on WT IDH2 [1] came to 96±1%; at WT IDH1 [2] it was 96±1%; on R132H IDH1, 92 ± 5%; on R140Q IDH2 it was 112 ± 4%; on R172K IDH2 it was 110 ± 10%.

For `O=C(O)C(=O)C1CCC(C(=O)O)CC1` (mixture of isomers) [compound 25], the “activity [%]” value on WT IDH2 [1] was found to be 92±9%; on WT IDH1 [2] it was 104±6%.

Turning to `O=C(O)C(=O)C1CC=CCC1C(=O)O` (mixture of isomers) [compound 27], the “activity [%]” value was 92±4% on WT IDH2 [1]; 93±1% on WT IDH1 [2]; 94 ± 11% at R132H IDH1; 97 ± 4% at R140Q IDH2; 104 ± 8% at R172K IDH2.

`CC(C)(C)CCC(CC(=O)O)C(=O)C(=O)O` (racemic) [compound 5]: the “activity [%]” value on WT IDH2 [1] is recorded as 98±1%; at WT IDH1 [2], 95±6%; on R132H IDH1, 142 ± 14%; at R140Q IDH2, 146 ± 4%; at R172K IDH2, 98 ± 3%; at WT IDH2 [3], less than 10%. In addition, the “activity [%]” value on WT IDH1 [4] is given as less than 10%.

Turning to `O=C(O)CC(CCCc1ccccc1)C(=O)C(=O)O` (racemic) [compound 6], the “activity [%]” value on WT IDH2 [1] is on record as 99±1%; at WT IDH1 [2], 96±1%; at R132H IDH1, 182 ± 10%; on R140Q IDH2, 239 ± 37%; on R172K IDH2, 93 ± 1%; on WT IDH2 [3] it was less than 10%. In addition, at WT IDH1 [4], the “activity [%]” value was less than 10%.

Regarding `O=C(O)CC(Cc1ccc(F)cc1)C(=O)C(=O)O` (racemic) [compound 8], the “activity [%]” value at WT IDH2 [1] is listed as 100±1%; at WT IDH1 [2], 96±3%; on R132H IDH1 it was 186 ± 6%; at R140Q IDH2, 516 ± 40%; on R172K IDH2 it was 106 ± 5%; at WT IDH2 [3] it was less than 10%. In addition, the “activity [%]” value at WT IDH1 [4] is less than 10%.

As to `COc1ccc(CC(CC(=O)O)C(=O)C(=O)O)cc1` (racemic) [compound 9], the “activity [%]” value on WT IDH2 [1] is on record as 98±3%; at WT IDH1 [2], 93±2%; at R132H IDH1, 200 ± 15%; at R140Q IDH2 it was 125 ± 3%; on R172K IDH2, 111 ± 3%; at WT IDH2 [3], less than 10%. The “activity [%]” value on WT IDH1 [4] was less than 10%.

Regarding `CCC(CC(=O)C(=O)O)C(=O)O` (racemic) [compound 14], the “activity [%]” value was 98±3% on WT IDH2 [1]; 94±1% on WT IDH1 [2]; 103 ± 2% at R132H IDH1; 117 ± 9% at R140Q IDH2; 112 ± 13% at R172K IDH2; less than 10% on WT IDH2 [3]. For the same compound, the “activity [%]” value on WT IDH1 [4] is less than 10%.

For `CCCC(CC(=O)C(=O)O)C(=O)O` (racemic) [compound 15], the “activity [%]” value is 98±3% on WT IDH2 [1]; 95±3% on WT IDH1 [2]; 101 ± 7% on R132H IDH1; 116 ± 4% on R140Q IDH2; 97 ± 5% at R172K IDH2; less than 10% at WT IDH2 [3]. On WT IDH1 [4], the “activity [%]” value is given as less than 10%.

For the compound `CCCCC(CC(=O)C(=O)O)C(=O)O` (racemic) [compound 16], the “activity [%]” value is 100±2% on WT IDH2 [1]; 102±3% on WT IDH1 [2]; 113 ± 4% on R132H IDH1; 131 ± 9% on R140Q IDH2; 100 ± 5% on R172K IDH2; less than 10% on WT IDH2 [3]. Moreover, the “activity [%]” value on WT IDH1 [4] was less than 10%.

Turning to `O=C(O)C(=O)C1C2C=CC(C2)C1C(=O)O` (racemic) [compound 28], the entries for the “activity [%]” value on WT IDH2 [1], at R132H IDH1 and at R140Q IDH2 were 99±1%, 116 ± 4% and 114 ± 4%, respectively.

In the case of `O=C(O)C(=O)c1cccc(C(=O)O)c1` [compound 29], the “activity [%]” value was 99±1% at WT IDH2 [1]; 94±2% on WT IDH1 [2]; 88 ± 2% at R132H IDH1; 95 ± 7% on R140Q IDH2; 93 ± 7% on R172K IDH2.

Turning to `O=C(O)C(=O)c1ccc(C(=O)O)cc1` [compound 30], the “activity [%]” value came to 100±4% on WT IDH2 [1]; 101±2% on WT IDH1 [2]; 103 ± 2% on R132H IDH1; 94 ± 3% on R140Q IDH2; 110 ± 8% at R172K IDH2.

As for `O=C(O)C(=O)c1cscc1C(=O)O` [compound 31], the “activity [%]” value on WT IDH2 [1] is recorded as 101±2%; on WT IDH1 [2] it was 103±1%; at R132H IDH1, 102 ± 5%; on R140Q IDH2, 113 ± 4%; on R172K IDH2 it was 99 ± 3%.
